This note sets out measurements from publication PMC7934871 (JCI Insight, 2021).

For one experiment, the system named is exportins 1–6. Nature of the experiment: Immunoprecipitation of FAM-labeled peptide and Western blotting, exportins 1–6. The settings on record: anti-FITC (FAM) immunoprecipitation, Western blotting, U251 cells. It is filed as binding, human. Here is the method:
Data are representative of 3 independent experiments (n = 3).
Whole cell lysates or tissue homogenates were prepared by using RIPA lysis buffer (50 mM Tris at pH 7.4, 150 mM NaCl, 1 mM EDTA, 0.5% NP-40, 1 mM NaF, 15% glycerol, and 20 mM β-glycerophosphate). A protease inhibitor cocktail (Mini Protease Inhibitor Cocktail; Roche) and a tyrosine phosphatase inhibitor, sodium orthovanadate (Na3VO4, 1 mM), were added freshly to the lysis buffer. Protein amounts were determined by BCA using a Thermo Fisher Scientific kit. Normalized protein amounts were subjected to an SDS-PAGE and transferred onto a nitrocellulose membrane for Western blotting. Proteins were visualized with a chemiluminescent detection kit (Pierce, Thermo Fisher Scientific). The protein levels for STAT1 (sc-346, E-23), STAT3 (sc-482, C-20), STAT5 (sc-74442, A-9), Crm1 (exportin 1) (sc-5595, H-300), CAS (exportin 2) (sc-271537, H-2), exportin 5 (sc-66885, H-300), and exportin 7 (sc-98639, H-82) were determined using antibodies from Santa Cruz Biotechnology Inc. Anti–exportin 3 (exportin T, 630622, LOS1 05-1525), anti–exportin 4 (3499-1), and anti–exportin 6 (11408-1-AP) were from MilliporeSigma, Epitomics, and Proteintech, respectively. […]
A general note: In western blotting, separated proteins are transferred to a membrane and probed.

A further experiment relates to STAT3-regulated genes. Put plainly: Expression of STAT3 targets in HCT116 cells (Western blotting, qPCR). It counts as cell-based, human. The text has this: Figure 3 PS-acet.-STAT3 peptide inhibits STAT3 activity and downregulates the expression of STAT3 targets. (A) Downregulation of STAT3 activity and its downstream target proteins shown in human HCT116 colorectal cancer cells by Western blotting (data represent 1 of the 3 experiments, n = 3). PO-acet.-STAT3 and PS-STAT3-K685R peptides were used in parallel as controls. (B) STAT3 inhibition regulated the expression of proliferation and apoptotic genes, assessed by real-time quantitative PCR. Data present mean ± SD, n = 3 independent experiments, 1-way ANOVA; ***P < 0.005; **P < 0.01. […] For p53 promoter assay, data represent 3 replicates in 3 independent experiments (n = 9). […]
Whole cell lysates or tissue homogenates were prepared by using RIPA lysis buffer (50 mM Tris at pH 7.4, 150 mM NaCl, 1 mM EDTA, 0.5% NP-40, 1 mM NaF, 15% glycerol, and 20 mM β-glycerophosphate). […] Protein amounts were determined by BCA using a Thermo Fisher Scientific kit. […]
Total RNA was extracted from cultured or tumor tissues using RNeasy kit (QIAGEN), according to manufacturer’s instruction. After cDNA synthesis using iScript cDNA Synthesis kit (Bio-Rad), samples were analyzed using pairs of primers specific for CASP9, CASP3, CASP8, BIRC5, BCL2L1, MYC, TP53, VEGF, IL1B, SERPIN3, FGA, CDK4, CCND2, CDKN2A, CDKN2B, GADD45A, mCD274, mMmp9, and mBirc5, as indicated. […]

The subject of a further experiment is p53 promoter. Put plainly: Luciferase reporter gene assay, p53 promoter. It counts as cell-based, human. The note with it: HCT116, 1 μM, overnight at 37°C. The text has this: (§1) Figure 3 PS-acet.-STAT3 peptide inhibits STAT3 activity and downregulates the expression of STAT3 targets. (A) Downregulation of STAT3 activity and its downstream target proteins shown in human HCT116 colorectal cancer cells by Western blotting (data represent 1 of the 3 experiments, n = 3). PO-acet.-STAT3 and PS-STAT3-K685R peptides were used in parallel as controls. (B) STAT3 inhibition regulated the expression of proliferation and apoptotic genes, assessed by real-time quantitative PCR. Data present mean ± SD, n = 3 independent experiments, 1-way ANOVA; ***P < 0.005; **P < 0.01. […] For p53 promoter assay, data represent 3 replicates in 3 independent experiments (n = 9). For cell proliferation assay, data represent 3 independent experiments. SD is shown (n = 3). One-way ANOVA; ***P < 0.005; **P < 0.01.
A total of 1–2 × 10^6 HCT116 cells were seeded into each well of a 24-well plate (Cellstar) and transfected with a 13x RGC plasmid, with a Renilla luciferase construct (both plasmids provided by Bernhard Lüscher, RWTH, Aachen, Germany), using Lipofectamine 2000 (Invitrogen, Thermo Fisher Scientific), according to manufacturer’s instruction. On the following day, cells were treated with 1 μM of PO- and PS-acet.-STAT3 peptides at 37°C overnight. Luciferase activities were determined using the luciferase assay system (Promega).
Background: In a reporter assay the amount or activity of a reporter protein is the signal.

Another experiment deals with HCT116 cells. Put plainly: Cell proliferation assay (CellTiter-Glo). The settings on record: HCT116, 10 μg/mL (approximately 1 μM) every day, day 7, CellTiter-Glo. It counts as cell-based, human.
Description: as §1
HCT116 cells were seeded in a 96-well plate at a density of 6000/well. Starting the following day, cells were treated every day with 10 μg/mL (approximately 1 μM) PO- or PS-peptides. On day 7, cell proliferation was measured based on ATP production using bioluminescence detection kit for ATP measurement (CellTiter-Glo, Promega), according to manufacturer’s instruction.
For orientation: ATP-based viability assays read luminescence as a measure of living cells.

The next experiment has as its target STAT3 (Homo sapiens, UniProt P40763). Put plainly: STAT3 protein stability after cycloheximide. It counts as cell-based. The arrangement: protein stability of STAT3 in HCT 116 cells; endogenous in cells; host or cells: HCT116. The settings on record: HCT116, 1 µM peptide pre-incubated 2 hours, 0-2 hours, Western blotting, n = 3. As for the experimental part:
(H) The protein stability of STAT3 in HCT 116 cells was measured at different time points as indicated following cycloheximide (CHX) treatment. The cells were pre-incubated with 1 µM of PS-acet.-STAT3 pept. for 2 hours before adding […] of CHX. The protein level of STAT3 was detected by Western blotting. The quantification was analyzed by protein band intensity od STAT3 and actin by ImageJ software. n= 3 independent experiments. SD is shown. Two-way ANOVA; ns, not significant.
Aftabizadeh et and Li al., Figure S5

Sequence of STAT3 (P40763 whole entry): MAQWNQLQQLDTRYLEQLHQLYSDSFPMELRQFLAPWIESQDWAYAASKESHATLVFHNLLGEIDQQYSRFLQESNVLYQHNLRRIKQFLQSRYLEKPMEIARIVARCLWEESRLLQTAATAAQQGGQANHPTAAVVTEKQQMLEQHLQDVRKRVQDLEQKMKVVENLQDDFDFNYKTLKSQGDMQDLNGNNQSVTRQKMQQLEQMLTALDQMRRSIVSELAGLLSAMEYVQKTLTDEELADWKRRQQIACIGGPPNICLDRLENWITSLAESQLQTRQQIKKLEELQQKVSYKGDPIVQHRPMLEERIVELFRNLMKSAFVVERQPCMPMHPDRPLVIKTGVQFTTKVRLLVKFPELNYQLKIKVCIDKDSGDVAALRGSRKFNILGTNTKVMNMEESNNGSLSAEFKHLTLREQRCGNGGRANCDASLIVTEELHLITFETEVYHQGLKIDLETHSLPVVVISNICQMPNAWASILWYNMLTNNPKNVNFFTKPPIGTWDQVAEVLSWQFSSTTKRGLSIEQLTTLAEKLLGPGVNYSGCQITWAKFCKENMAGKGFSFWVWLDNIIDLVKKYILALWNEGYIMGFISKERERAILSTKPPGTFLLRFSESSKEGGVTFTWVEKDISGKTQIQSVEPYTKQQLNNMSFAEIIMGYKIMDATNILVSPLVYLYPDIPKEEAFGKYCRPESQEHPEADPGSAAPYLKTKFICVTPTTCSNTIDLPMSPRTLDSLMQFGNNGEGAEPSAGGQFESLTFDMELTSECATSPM

As to “PDIPKEEAFGK685(Ac)YCRPESQEHPC-linker-T*C*C*A*T*G*A*G*C*T*T*C*C*T*G*A*T*G*C*T [PS-acet.-STAT3 peptide]”, the “binding to exportins 1–6” value in the experiment on exportins 1–6 is “not”. Besides, in the experiment on STAT3-regulated genes (HCT116, approximately 1 μM), the “expression of STAT3-regulated genes Survivin (BIRC5) and MYC, protein and mRNA” value is reported as “significant downregulation”. Also, the “expression of STAT3-suppressed apoptotic genes TP53, CASP9, CASP3” value in the experiment on STAT3-regulated genes (HCT116 and LoVo, real-time quantitative PCR) was “upregulated”. Moreover, the p53 promoter activity entry in the experiment with p53 promoter is given as “significant increase”. Also, the cell proliferation result with HCT116 cells was “decrease”. Besides, the “protein stability of STAT3” value at STAT3 is recorded as “not affected”.
